Reference: the supplement of paper PMC10307832

How the values were obtained:
Experiment in all cases: relative viability (nuclei count vs DMSO), 5 days (fraction); higher = more cells survive
201T = test system: 201T
Outline: (§1)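 Lung cancer cell lines were pin-tool dosed in 1536-well plates on the day after seeding, with either a lone drug or a fixed anchor-drug dose plus five library-drug doses (not always all listed) in √10 steps. Nuclei were counted on 4× images after 5 days. Relative viability is the ratio of treated-well to vehicle-well nuclei counts, with each value a median of duplicate plates.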

BEN = test system: BEN
Outline: as §1

COR-L 105 = test system: COR-L 105
Outline: as §1

EKVX = test system: EKVX
Outline: as §1

EPLC-272H = test system: EPLC-272H
Outline: as §1

H3255 = test system: H3255
Outline: as §1

HCC-44 = test system: HCC-44
Outline: as §1

HCC-827 = test system: HCC-827
Outline: as §1

HOP-62 = test system: HOP-62
Outline: as §1

LCLC-97TM1 = test system: LCLC-97TM1
Outline: as §1

LOU-NH91 = test system: LOU-NH91
Outline: as §1

LU99A = test system: LU99A
Outline: as §1

NCI-H1395 = test system: NCI-H1395
Outline: as §1

NCI-H1437 = test system: NCI-H1437
Outline: as §1

NCI-H1666 = test system: NCI-H1666
Outline: as §1

NCI-H1975 = test system: NCI-H1975
Outline: as §1

NCI-H2085 = test system: NCI-H2085
Outline: as §1

NCI-H2087 = test system: NCI-H2087
Outline: as §1

NCI-H2342 = test system: NCI-H2342
Outline: as §1

NCI-H358 = test system: NCI-H358
Outline: as §1

NCI-H647 = test system: NCI-H647
Outline: as §1

PC-3 [JPC-3] = test system: PC-3 [JPC-3]
Outline: as §1

SW 1573 = test system: SW 1573
Outline: as §1

CC1(C)CCC(c2ccc(Cl)cc2)=C(CN2CCN(c3ccc(C(=O)NS(=O)(=O)c4ccc(N[C@H](CCN5CCOCC5)CSc5ccccc5)c(S(=O)(=O)C(F)(F)F)c4)cc3)CC2)C1 [Navitoclax] + CC(=O)Nc1cccc(-n2c(=O)n(C3CC3)c(=O)c3c(Nc4ccc(I)cc4F)n(C)c(=O)c(C)c32)c1 [Trametinib] (partner 0.02 µM)
relative viability (201T; first compound 0.005 µM): 0.715
relative viability (201T; first compound 0.01581 µM): 0.784
relative viability (201T; first compound 0.05 µM): 0.741
relative viability (201T; first compound 0.1581 µM): 0.7
relative viability (201T; first compound 0.5 µM): 0.726
relative viability (BEN; first compound 0.005 µM): 1.07
relative viability (BEN; first compound 0.01581 µM): 1.18
relative viability (BEN; first compound 0.05 µM): 0.94
relative viability (BEN; first compound 0.1581 µM): 1.05
relative viability (BEN; first compound 0.5 µM): 0.669
relative viability (COR-L 105; first compound 0.005 µM): 0.441
relative viability (COR-L 105; first compound 0.01581 µM): 0.476
relative viability (COR-L 105; first compound 0.05 µM): 0.428
relative viability (COR-L 105; first compound 0.1581 µM): 0.447
relative viability (COR-L 105; first compound 0.5 µM): 0.379
relative viability (EKVX; first compound 0.005 µM): 0.292
relative viability (EKVX; first compound 0.01581 µM): 0.457
relative viability (EKVX; first compound 0.05 µM): 0.334
relative viability (EKVX; first compound 0.1581 µM): 0.376
relative viability (EKVX; first compound 0.5 µM): 0.333
relative viability (EPLC-272H; first compound 0.005 µM): 0.239
relative viability (EPLC-272H; first compound 0.05 µM): 0.272
relative viability (EPLC-272H; first compound 0.1581 µM): 0.298
relative viability (EPLC-272H; first compound 0.5 µM): 0.277
relative viability (H3255; first compound 0.005 µM): 0.529
relative viability (H3255; first compound 0.01581 µM): 0.7
relative viability (H3255; first compound 0.05 µM): 0.612
relative viability (H3255; first compound 0.1581 µM): 0.59
relative viability (H3255; first compound 0.5 µM): 0.582
relative viability (HCC-44; first compound 0.005 µM): 1.1
relative viability (HCC-44; first compound 0.01581 µM): 1.05
relative viability (HCC-44; first compound 0.05 µM): 0.94
relative viability (HCC-44; first compound 0.1581 µM): 1.05
relative viability (HCC-44; first compound 0.5 µM): 1.11
relative viability (HCC-827; first compound 0.005 µM): 0.528
relative viability (HCC-827; first compound 0.01581 µM): 0.567
relative viability (HCC-827; first compound 0.05 µM): 0.446
relative viability (HCC-827; first compound 0.1581 µM): 0.514
relative viability (HCC-827; first compound 0.5 µM): 0.55
relative viability (HOP-62; first compound 0.005 µM): 0.377
relative viability (HOP-62; first compound 0.01581 µM): 0.404
relative viability (HOP-62; first compound 0.05 µM): 0.362
relative viability (HOP-62; first compound 0.1581 µM): 0.365
relative viability (HOP-62; first compound 0.5 µM): 0.39
relative viability (LCLC-97TM1; first compound 0.005 µM): 0.184
relative viability (LCLC-97TM1; first compound 0.01581 µM): 0.232
relative viability (LCLC-97TM1; first compound 0.05 µM): 0.186
relative viability (LCLC-97TM1; first compound 0.1581 µM): 0.211
relative viability (LCLC-97TM1; first compound 0.5 µM): 0.189
relative viability (LOU-NH91; first compound 0.005 µM): 0.776
relative viability (LOU-NH91; first compound 0.01581 µM): 0.829
relative viability (LOU-NH91; first compound 0.05 µM): 0.607
relative viability (LOU-NH91; first compound 0.1581 µM): 0.685
relative viability (LOU-NH91; first compound 0.5 µM): 0.33
relative viability (LU99A; first compound 0.005 µM): 0.527
relative viability (LU99A; first compound 0.01581 µM): 0.597
relative viability (LU99A; first compound 0.1581 µM): 0.572
relative viability (LU99A; first compound 0.5 µM): 0.674
relative viability (NCI-H1395; first compound 0.005 µM): 1.03
relative viability (NCI-H1395; first compound 0.01581 µM): 1.17
relative viability (NCI-H1395; first compound 0.05 µM): 1.01
relative viability (NCI-H1395; first compound 0.1581 µM): 1.13
relative viability (NCI-H1395; first compound 0.5 µM): 1.04
relative viability (NCI-H1437; first compound 0.005 µM): 0.476
relative viability (NCI-H1437; first compound 0.01581 µM): 0.595
relative viability (NCI-H1437; first compound 0.05 µM): 0.359
relative viability (NCI-H1437; first compound 0.1581 µM): 0.472
relative viability (NCI-H1437; first compound 0.5 µM): 0.539
relative viability (NCI-H1666; first compound 0.005 µM): 0.933
relative viability (NCI-H1666; first compound 0.01581 µM): 0.937
relative viability (NCI-H1666; first compound 0.05 µM): 0.928
relative viability (NCI-H1666; first compound 0.1581 µM): 0.903
relative viability (NCI-H1666; first compound 0.5 µM): 0.931
relative viability (NCI-H1975; first compound 0.005 µM): 0.427
relative viability (NCI-H1975; first compound 0.01581 µM): 0.409
relative viability (NCI-H1975; first compound 0.05 µM): 0.236
relative viability (NCI-H1975; first compound 0.1581 µM): 0.399
relative viability (NCI-H1975; first compound 0.5 µM): 0.316
relative viability (NCI-H2085; first compound 0.005 µM): 0.567
relative viability (NCI-H2085; first compound 0.01581 µM): 0.645
relative viability (NCI-H2085; first compound 0.05 µM): 0.402
relative viability (NCI-H2085; first compound 0.1581 µM): 0.621
relative viability (NCI-H2085; first compound 0.5 µM): 0.552
relative viability (NCI-H2087; first compound 0.005 µM): 0.177
relative viability (NCI-H2087; first compound 0.01581 µM): 0.194
relative viability (NCI-H2087; first compound 0.1581 µM): 0.145
relative viability (NCI-H2087; first compound 0.5 µM): 0.151
relative viability (NCI-H2342; first compound 0.005 µM): 0.8
relative viability (NCI-H2342; first compound 0.01581 µM): 0.957
relative viability (NCI-H2342; first compound 0.05 µM): 0.819
relative viability (NCI-H2342; first compound 0.1581 µM): 0.653
relative viability (NCI-H2342; first compound 0.5 µM): 0.967
relative viability (NCI-H358; first compound 0.005 µM): 0.131
relative viability (NCI-H358; first compound 0.01581 µM): 0.148
relative viability (NCI-H358; first compound 0.05 µM): 0.114
relative viability (NCI-H358; first compound 0.1581 µM): 0.133
relative viability (NCI-H358; first compound 0.5 µM): 0.146
relative viability (NCI-H647; first compound 0.005 µM): 0.345
relative viability (NCI-H647; first compound 0.01581 µM): 0.521
relative viability (NCI-H647; first compound 0.05 µM): 0.331
relative viability (NCI-H647; first compound 0.1581 µM): 0.534
relative viability (NCI-H647; first compound 0.5 µM): 0.408
relative viability (PC-3 [JPC-3]; first compound 0.005 µM): 0.674
relative viability (PC-3 [JPC-3]; first compound 0.01581 µM): 0.714
relative viability (PC-3 [JPC-3]; first compound 0.05 µM): 0.734
relative viability (PC-3 [JPC-3]; first compound 0.1581 µM): 0.668
relative viability (PC-3 [JPC-3]; first compound 0.5 µM): 0.603
relative viability (SW 1573; first compound 0.005 µM): 0.623
relative viability (SW 1573; first compound 0.01581 µM): 0.5
relative viability (SW 1573; first compound 0.05 µM): 0.654
relative viability (SW 1573; first compound 0.1581 µM): 0.475
relative viability (SW 1573; first compound 0.5 µM): 0.474
